Read-outs that look alike come from different tables or passages of the source. Where a SMILES comes first, the peptide text is derived from it. [ ]: non-standard residue; d: D form. The star is where a group is joined. Sta = CC(C)C[C@H](N)[C@@H](O)CC(=O)O; Isovaleryl = CC(C)CC(=O)*
Tests used:
pepsin [1] = target: T1, pepsin (Sus scrofa, UniProt P00791); conditions: cited from earlier work; for D2Okcat (solvent isotope effect): pepsin, synthetic peptide substrate
T1 construct: formed from pepsinogen A by limited proteolysis
T1 sequence (P00791 60-385): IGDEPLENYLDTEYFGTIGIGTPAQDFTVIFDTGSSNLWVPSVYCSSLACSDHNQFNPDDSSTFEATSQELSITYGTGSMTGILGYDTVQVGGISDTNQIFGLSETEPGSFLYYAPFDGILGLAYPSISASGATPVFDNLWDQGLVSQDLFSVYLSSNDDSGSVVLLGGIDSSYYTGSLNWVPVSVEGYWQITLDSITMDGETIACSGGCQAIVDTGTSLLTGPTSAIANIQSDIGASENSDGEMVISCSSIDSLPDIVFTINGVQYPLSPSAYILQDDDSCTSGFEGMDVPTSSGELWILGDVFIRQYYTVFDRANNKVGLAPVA

pepsin [2] = target: T1, pepsin; assay: Kinetics and solvent isotope effects of pepsin acting on synthetic substrates; assay type: biochemical, porcine; conditions: for kcat (fitted pH-independent kinetic constant): re-analysis of Hunkapillar & Richards data
Method: FIG. 2: Kinetics of pepsin acting on N-trifluroacetyl-L-phenylalanine as a function of pH (A) and pD (B). The fitted pH-independent kinetic constants are kcat=0.038±0.006 min^−1 in H2O and kcat=[…] in D2O. The dotted line indicates the range of carboxyl pKs consistent with the fitted line in D2O.
The response of low-barrier hydrogen bonds to D2O, as described herein, finally solves this 92 year-old mystery and simultaneously provides a means to evaluate the efficacy of potential aspartic protease inhibitors. During hydrolysis of N-trifluroacetyl-L-phenylalanine, Hunkapillar & Richards^10 observed bell-shaped pH profiles which were shifted to the right, but the upper pK profiles shifted to the left, thereby bringing them closer together. Normally, D2O shifts all pKs to the right about half a unit because of the fractionation factor of H3O^+.^11
The fit to the BELL rate equation of data obtained in H2O converged with pKs of 2.9±0.1 and 4.5±0.1, while those in D2O converged to the default separation of only 0.6 units, the minimum that is statistically possible. The fitted curve in FIG. 2B is the same for identical pKs of 3.84±0.08 or separated pKs of 3.5 and 4.1—or anything in between. Unknown in 1972, low-barrier hydrogen bonds are now understood to cause opposite shifts in the pKs of the conjugate bases participating in the bond. Both protonation and deprotonation of the low-barrier hydrogen bond complex are made more difficult, which shifts apparent pKs outwards in H2O but less so in D2O.^7
By comparing the maximal values of their fitted curves, Hunkapillar & Richards estimated that ^D2Okcat≈3. However, the appropriate comparison note between the absolute maxima, but between the pH-independent maxima,^11 represented by the horizontal bars in FIGS. 2A and 2B. This ratio yields ^D2Okcat=1.8±0.4 for pKs separated by 0.6 units, and lower values if the fractionation factor is greater than 0.3. […]

HIV-1 protease [3] = target: T2, HIV-1 protease (Human immunodeficiency virus type 1 group M subtype B, UniProt P04585); conditions: complex between HIV-1 protease and pepstatin; cited from earlier work
pepsin [4] = target: T1, pepsin; conditions: cited from earlier work
HIV-1 protease [5] = target: T2, HIV-1 protease; conditions: cited from earlier work
[6] = product inhibition, substrate Ac-Ser-Glu-Asp-Tyr*Phe-Leu-Asp-Gly-NH2 (SEQ. ID. NO: 2), read-out: Kii
[7] = product inhibition, substrate Ac-Ser-Glu-Asp-Tyr*Phe-Leu-Asp-Gly-NH2 (SEQ. ID. NO: 2), read-out: Kis
[8] = substrate Ac-Ser-Glu-Asp-Tyr*Phe-Leu-Asp-Gly-NH2 (SEQ. ID. NO: 2), KH/KD
[9] = pH 4.5, substrate Ac-Ser-Glu-Asp-Tyr*Phe-Val-Val-NH2 (SEQ. ID. NO: 6)

O=C(O)[C@H](Cc1ccccc1)NC(=O)C(F)(F)F [N-trifluroacetyl-L-phenylalanine]
D2Okcat (pepsin [1]; estimated by Hunkapillar & Richards from maximal values of fitted curves): ≈ 3
kcat (fitted pH-independent kinetic constant) (pepsin [2]; in D2O): 0.022±2 min^−1
kcat (fitted pH-independent kinetic constant) (pepsin [2]; in H2O): 0.038±0.006 min^−1
D2Okcat (pepsin [2]; ratio of pH-independent maxima, pKs separated by 0.6 units): 1.8±0.4

CC(C)CC(=O)N[C@H](C(=O)N[C@H](C(=O)N[C@@H](CC(C)C)[C@@H](O)CC(=O)N[C@@H](C)C(=O)N[C@@H](CC(C)C)[C@@H](O)CC(=O)O)C(C)C)C(C)C [pepstatin] (Isovaleryl-VV[Sta]A[Sta]-OH)
Low-barrier hydrogen bond signal in proton NMR of the inhibited complex (HIV-1 protease [3]): negative results
D2Ok on slow onset of inhibition (pepsin [4]; pre-incubation experiments with free enzyme): 0.69±0.09
D2Ok on slow onset of inhibition (pepsin [4]; when catalysis is in progress): 1.25±0.09

Ac-Ser-Glu-Asp-Tyr (SEDY; printed: Ser-Glu-Asp-Tyr)
Ki (HIV-1 protease [5]; [6]): 12 mM
Ki (HIV-1 protease [5]; [7]): 3.8 mM
D2OKii (solvent isotope effect on Kii) (HIV-1 protease [5]; [8]): 3.8 ± 1.3
D2OKis (solvent isotope effect on Kis) (HIV-1 protease [5]; [8]): 4.2 ± 1.6

Leu-Ser-Nph-Nle-Ala-Leu-OMe
D2Okcat (solvent isotope effect) (pepsin [1]): 1.51±0.02

Lys-Lys-Ala-Lys-Phe-Nph-Arg-Leu
D2Okcat (solvent isotope effect) (pepsin [1]): 2.02±0.15

Phe-Leu-Asp-Gly-NH2 (FLDG; printed: Phe-Leu-Asp-Gly-)
Ki (HIV-1 protease [5]; [6]): 4 mM
Ki (HIV-1 protease [5]; [7]): 12 mM
D2OKii (solvent isotope effect on Kii) (HIV-1 protease [5]; [8]): 3.0 ± 0.9
D2OKis (solvent isotope effect on Kis) (HIV-1 protease [5]; [8]): 1.1 ± 0.4

RASEDY [Ac-Arg-Ala-Ser-Glu-Asp-Tyr]
Ki (HIV-1 protease [5]; pH 3.5, substrate Ac-Ser-Glu-Asp-Tyr*Phe-Val-Val-NH2 (SEQ. ID. NO: 6), pattern uncompetitive, read-out: Kii): 0.23 mM
D2OKii (solvent isotope effect on Kii) (HIV-1 protease [5]; [9]): 1.0 ± 0.8
D2OKis (solvent isotope effect on Kis) (HIV-1 protease [5]; [9]): 1.2 ± 0.4
D2OKii (solvent isotope effect on Kii) (HIV-1 protease [5]; pH 6, substrate SEQ. ID. NO: 4): 3.8 ± 1.3
D2OKis (solvent isotope effect on Kis) (HIV-1 protease [5]; pH 6, substrate SEQ. ID. NO: 4): 4.2 ± 1.6
Ki (HIV-1 protease [5]; pH 6, substrate printed Ac-Ser-Glu-Asp-Tyr*Phe-Leu-Asp-Gly-NH2 (SEQ. ID. NO: 4), read-out: Kii): 8 mM
Ki (HIV-1 protease [5]; pH 6, substrate printed Ac-Ser-Glu-Asp-Tyr*Phe-Leu-Asp-Gly-NH2 (SEQ. ID. NO: 4), read-out: Kis): 7 mM
